# Changes are numbered by the printed parent chain. “Also recorded” adds a separate entry of the source. Read-outs that look alike come from different tables or passages of the source.
# Tests used:
# [1] = target: T1, KcsA-Kv1.2 T-only chimera (Streptomyces lividans, UniProt P0A334, R52A/G53D/A54E/P55R/G56E/A57S/L59F/I60P/T61S/Y62I/R64D); test: Phage-binding competition assay, KcsA-Kv1.2 T-only; set-up: species or system human Kv1.2 turret in Streptomyces lividans KcsA; settings: for binding to KcsA-Kv1.2 T-only, in words: HgTx1-phage competition, Fig. 7E (ligand-binding pattern); for Rank, T-only chimera (Kv1.2): rank by competition IC50 among MTX, ShK, KTX1
# T1 sequence (P0A334 1-160 R52A/G53D/A54E/P55R/G56E/A57S/L59F/I60P/T61S/Y62I/R64D): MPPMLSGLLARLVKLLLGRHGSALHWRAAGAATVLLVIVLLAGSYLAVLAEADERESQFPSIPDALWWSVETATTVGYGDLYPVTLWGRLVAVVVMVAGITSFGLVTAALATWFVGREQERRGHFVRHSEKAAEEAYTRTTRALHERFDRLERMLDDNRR
# Description: (§1) Phage stock solutions were diluted to working concentration with phage resuspension buffer supplemented with 2 mM DDM. For protein immobilization, the following amounts were used in a final volume of 50 μl/well: wt KcsA, 0.1 μg; KcsA-Kv1.1 T-only, 0.005 μg; KcsA-Kv1.1 T+F, 0.02 μg; KcsA-Kv1.2 T-only, 0.01 μg; KcsA-Kv1.2 T+F, 0.1 μg; KcsA-Kv1.3 T-only, 0.01 μg; and KcsA-Kv1.3 T+F, 0.1 μg. Protein samples were diluted in 50 μl of storage buffer (20 mM Tris pH8.0, 300 mM KCl, 2 mM DDM) and were added to the designated wells of a Pierce Clear, 96-Well Nickel Coated Plate (15442, Thermo Fisher Scientific), then incubated for 1 h at room temperature on a horizontal shaker at 130 rpm. The plate was blocked for 1 h at room temperature with 180 μl/well TBS-BSA supplemented with 1 mM DDM. Following blocking, the wells were washed 4× with washing buffer (300 μl TBS-Tween, 0.1% v/v) using a Wellwash Versa microplate washer (Thermo Fisher Scientific); then 50 μl phage solution (in TBS-BSA-Tween, 0.1% v/v, 2 mM DDM) at determined phage concentration was added to the wells and incubated for 1 h at room temperature on a horizontal shaker. The plate was washed 4× with washing buffer, then 50 μl anti-M13 IgG HRP (MA5-36125, Invitrogen) diluted to 1:2500 in TBS-Tween (0.1% v/v) was added to the wells and incubated for 1 h at room temperature. The plate was washed again 4× with 300 μl/well washing buffer. Finally, 50 μl/well 1-Step Ultra TMB-ELISA solution (34028, Thermo Fisher Scientific) was added to the wells, and the developing signal was stopped with 50 μl 1M HCl after 5 to 10 min. The light absorbance signal was read at 450 nm with Byonoy absorbance 96 plate reader (Byonoy GmbH).
# (§2) For protein immobilization, the following amounts were used in a final volume of 50 μl/well: KcsA-Kv1.1 T-only, 0.005 μg; KcsA-Kv1.1 T+F, 0.01 μg; KcsA-Kv1.2 T-only, 0.025 μg; KcsA-Kv1.2 T+F, 0.0125 μg; KcsA-Kv1.3 T-only, 0.01 μg; and KcsA-Kv1.3 T+F, 0.1 μg. Protein samples were diluted in storage buffer. Binding of given concentrations of relevant ligand-displaying phages quantified by light absorbance ([…]) were investigated in a similar manner as in phage ELISA-binding assay, while different concentrations of competing toxin test substances were applied simultaneously. The results were converted to percent inhibitions (percent displacement) of the indicator phage binding, and relative affinities of the tested toxins were assessed by plotting percent displacements against log concentrations and determining half maximal inhibitory concentrations (IC50) by sigmoidal curve fitting using “Sigmoidal dose-response (variable slope) with least squares method” algorithm in GraphPad Prism 8 using the following equation: Y=Bottom+Top−Bottom/1+10^(LogEC50−×)⋅HillSlope
# [2] = target: T2, KcsA-Kv1.2 T-only chimera (Streptomyces lividans, UniProt P0A334, A54E/A57S/G53D/G56E/I60P/L59F/P55R/R52A/R64D/T61S/Y62I); test: Phage-binding competition assay, KcsA-Kv1.2 T-only; set-up: species or system human Kv1.2 turret in Streptomyces lividans KcsA; settings: HgTx1-phage competition, KcsA-Kv1.2 T-only; value given in figure, sigmoidal fit to means of three replicates; read-out: IC50 (Fig. 7E)
# T2 sequence (P0A334 1-160 R52A/G53D/A54E/P55R/G56E/A57S/L59F/I60P/T61S/Y62I/R64D): T1 sequence (P0A334 1-160 R52A/G53D/A54E/P55R/G56E/A57S/L59F/I60P/T61S/Y62I/R64D)
# Description: as §1, §2
# KcsA-Kv1.1 T+F chimera [3] = target: T3, KcsA-Kv1.1 T+F chimera (Streptomyces lividans, UniProt P0A334, R52A/G53E/A54E/P55A/G56E/A57S/Q58H/L59F/I60S/T61S/Y62I/R64D/L81M); test: Phage-binding competition assay, KcsA-Kv1.1 T+F; set-up: species or system human Kv1.1 turret and filter in Streptomyces lividans KcsA; settings: for competition binding to KcsA-Kv1.1 T+F, in words: ShK-phage competition, native peptide, Fig. 8F (ligand-binding pattern); for Rank, T+F chimera (Kv1.1): rank by competition IC50 among ShK, KTX1, MTX
# T3 sequence (P0A334 1-160 R52A/G53E/A54E/P55A/G56E/A57S/Q58H/L59F/I60S/T61S/Y62I/R64D/L81M): T1 sequence (P0A334 1-160 R52A/G53D/A54E/P55R/G56E/A57S/L59F/I60P/T61S/Y62I/R64D) with D53E, R55A, Q58H, P60S, L81M
# Description: as §1, §2
# KcsA-Kv1.1 T+F chimera [4] = target: T4, KcsA-Kv1.1 T+F chimera (Streptomyces lividans, UniProt P0A334, A54E/A57S/G53E/G56E/I60S/L59F/L81M/P55A/Q58H/R52A/R64D/T61S/Y62I); test: Phage-binding competition assay, KcsA-Kv1.1 T+F; set-up: species or system human Kv1.1 turret and filter in Streptomyces lividans KcsA
# T4 sequence (P0A334 1-160 R52A/G53E/A54E/P55A/G56E/A57S/Q58H/L59F/I60S/T61S/Y62I/R64D/L81M): T1 sequence (P0A334 1-160 R52A/G53D/A54E/P55R/G56E/A57S/L59F/I60P/T61S/Y62I/R64D) with D53E, R55A, Q58H, P60S, L81M
# Description: as §1, §2
# human Kv1.3 = human Kv1.3 channel blocking, patch-clamp; read-out: IC50, Kv1.x blocking (Kv1.3); cited from earlier work
# Text: Table 1 Summary of chimeric protein-binding prediction studies in the light of IC50 values | column: Kv1.x blocking / IC50 (nM) || Peptide toxins of venomous animal origin as lead molecules for optimization may offer an advantage over small molecules in terms of potentially greater affinity and specificity. These miniproteins are usually up to 50 amino acids in length and can adopt distinct conformation with secondary structural elements stabilized by several disulfide bonds ([9], [10], [11]). Due to their considerable surface area, miniproteins can form stable complexes with target proteins through extensive interaction surfaces ([12], [13]). The miniprotein Kv1.3 blocker drug candidate, Dalazatide—a synthetic derivative ... || Our initial investigation focused on assessing the relative binding affinities of various channel-blocking toxins to the T-only version of the KcsA-Kv1.3 chimera. Subsequently, we evaluated whether these affinities aligned with the toxins' blocking efficacy on native human Kv1.3 channels, as determined by patch-clamp assay.
SMILES,"binding to KcsA-Kv1.2 T-only, in words [1]","Rank, T-only chimera (Kv1.2) [1]",IC50 [2] [nM],"competition binding to KcsA-Kv1.1 T+F, in words (KcsA-Kv1.1 T+F chimera [3])","Rank, T+F chimera (Kv1.1) (KcsA-Kv1.1 T+F chimera [3])","IC50 (KcsA-Kv1.1 T+F chimera [4]; displacement of ShK-phage, KcsA-Kv1.1 T+F 0.01 μg/well on nickel-coated plate, mean ± SD (n = 3), NQ = not quantifiable, read-out: IC50, T+F chimera (Kv1.1)) [nM]",IC50 (human Kv1.3) [nM],"IC50 (KcsA-Kv1.1 T+F chimera [4]; ShK-phage competition, T+F KcsA-Kv1.1, value given in figure, sigmoidal fit to means of three replicates, read-out: IC50 (Fig. 8F)) [nM]"
"CC[C@H](C)[C@H](NC(=O)[C@H](CCC(=O)O)NC(=O)[C@@H](NC(=O)CN)C(C)C)C(=O)N[C@@H](CC(N)=O)C(=O)N[C@H](C(=O)N[C@@H](CCCCN)C(=O)N[C@H]1CSSC[C@@H]2NC(=O)[C@H](CCCCN)NC(=O)CNC(=O)[C@H](Cc3ccccc3)NC(=O)[C@H](CCCNC(=N)N)NC(=O)[C@H](CCSC)NC(=O)CNC(=O)[C@H](C)NC(=O)[C@H](CC(=O)O)NC(=O)[C@H](CCCCN)NC(=O)[C@@H]3CSSC[C@@H](C(=O)N[C@H](C(=O)N4CCC[C@H]4C(=O)N[C@@H](CCCCN)C(=O)O)[C@@H](C)O)NC(=O)[C@H](Cc4c[nH]cn4)NC(=O)[C@H](CSSC[C@H](NC(=O)[C@H](CCC(N)=O)NC(=O)[C@@H]4CCCN4C(=O)[C@H](CO)NC(=O)CNC(=O)[C@H](CO)NC1=O)C(=O)N[C@@H](CC(C)C)C(=O)N[C@@H](CCCCN)C(=O)N1CCC[C@H]1C(=O)N3)NC(=O)[C@H](CCCCN)NC(=O)[C@H](CCCNC(=N)N)NC(=O)[C@H](CC(N)=O)NC(=O)[C@H](CCSC)NC2=O)C(C)C [KTX1, Kaliotoxin-1]",inconsistent with their published channel blocking potencies; also recorded: ShK > KTX1 > MTX,2,0.184,ShK > KTX1 > MTX,2,1.49,0.65,–
"CC[C@H](C)[C@@H]1NC(=O)[C@@H](NC(=O)[C@H](CO)NC(=O)[C@@H](N)CCCNC(=N)N)CSSC[C@@H](C(=O)O)NC(=O)[C@H]([C@@H](C)O)NC(=O)CNC(=O)[C@@H]2CSSC[C@@H]3NC(=O)[C@H](CCC(N)=O)NC(=O)[C@H](Cc4ccccc4)NC(=O)[C@H](C)NC(=O)[C@H]([C@@H](C)O)NC(=O)[C@H](CSSC[C@H](NC(=O)[C@H](Cc4ccccc4)NC(=O)[C@H](CO)NC(=O)[C@H](CC(C)C)NC(=O)[C@H](CCCNC(=N)N)NC(=O)[C@H](Cc4ccc(O)cc4)NC(=O)[C@H](CCCCN)NC(=O)[C@H](CCSC)NC(=O)[C@H](CO)NC(=O)[C@H](Cc4c[nH]cn4)NC(=O)[C@H](CCCCN)NC3=O)C(=O)N[C@@H](CCCNC(=N)N)C(=O)N[C@@H](CCCCN)C(=O)N[C@@H]([C@@H](C)O)C(=O)N2)NC(=O)[C@H](CCCNC(=N)N)NC(=O)[C@H](CO)NC(=O)[C@H](CCCCN)NC(=O)[C@@H]2CCCN2C(=O)[C@H]([C@@H](C)CC)NC(=O)[C@H]([C@@H](C)O)NC(=O)[C@H](CC(=O)O)NC1=O [ShK, Stichodactyla toxin]",inconsistent with their published channel blocking potencies; also recorded: ShK > KTX1 > MTX,1,0.0701,ShK > KTX1 > MTX,1,–,–,0.271

# Source: paper PMC11002876, “KcsA-Kv1.x chimeras with complete ligand-binding sites provide improved predictivity for screening selective Kv1.x blockers” (The Journal of Biological Chemistry, 2024)
